Source: patent US20250214999A1, “HETEROCYCLIC GLP-1 AGONISTS” (Gasherbrum Bio, Inc., priority 2020, published 2025)

Target: GLP-1 Receptor (Homo sapiens (Human), UniProt P43220)
Test: GLP-1R agonist cAMP stimulation assay (HEK293/GLP1R/CRE-LUC cells)
Format: cell-based
Conditions: 30 min incubation, read-out: GLP1R cAMP Stimulation DR: EC50
Procedure: Activation of GLP-1 receptor is known to stimulate cyclic AMP (cAMP) production in cells which indicates primary coupling to the Gαs subunit of the G protein heterotrimeric complex.
To optimize functional activity directed toward Gαs coupling, a HEK293/CRELuc cell line developed by HDB stably expressing the GLP-1 Receptor was used. 200× concentration of compound working solutions were prepared (Agilent Technologies Bravo) with 1/2 log serial dilution in 384-well Echo LDV plate (Labcyte, Cat #LP-0200). 50 nL/well 200× concentration of compound working solutions were moved to 384-well white low volume plate (Greiner, Cat #784075) using Labcyte ECHO550. 1×10^5 cells/mL HEK293/GLP1R/CRE-LUC (HD Biosciences) cell suspensions prepared with assay buffer [DPBS containing 0.5 mM IBMX (Sigma,Cat #I5879) and 0.1% BSA (GENVIEW, Cat #FA016-100 g)], 10 uL cell suspensions were added to each well of previous generated assay plate which already contains 50 nl compound at 200× concentration using ThermoFisher Multidrop Combi (1000cells/well). Seal the plate and incubate at 37° C. with 5% CO2 for 30 min.
After incubation the CAMP assay signal was generated using cAMP dynamic 2 Kit (Cisbio). 5 μL cAMP-d2 working solution was added to each well, followed with 5 μL Anti-cAMP antibody-cryptate working solution added to each well using ThermoFisher Multidrop Combi. Incubate at room temperature for 1 hour protected from light. Read the fluorescence at 665 and 615 nm with Reader PerkinElmer En Vision.

Chain of GLP-1 Receptor (P43220 24-463): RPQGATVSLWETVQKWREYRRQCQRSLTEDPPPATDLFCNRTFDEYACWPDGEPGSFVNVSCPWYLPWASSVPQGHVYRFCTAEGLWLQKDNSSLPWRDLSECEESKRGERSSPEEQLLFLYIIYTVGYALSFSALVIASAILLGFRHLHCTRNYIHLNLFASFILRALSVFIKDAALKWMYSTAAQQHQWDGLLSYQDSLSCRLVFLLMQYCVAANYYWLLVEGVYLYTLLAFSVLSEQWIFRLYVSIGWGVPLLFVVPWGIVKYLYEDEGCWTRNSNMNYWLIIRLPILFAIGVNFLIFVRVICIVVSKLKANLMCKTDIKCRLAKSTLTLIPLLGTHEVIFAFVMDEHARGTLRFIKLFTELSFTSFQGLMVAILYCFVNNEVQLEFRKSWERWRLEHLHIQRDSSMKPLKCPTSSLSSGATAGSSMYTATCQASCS

Compound	EC50
O=C(O)c1ccc2nc(CN3CCC(c4cccc5c4OCC(c4ccc(Cl)cc4F)O5)CC3)n(C[C@@H]3CCO3)c2n1 (mixture of isomers) [Compound 104a, 2-((4-(2-(4-Chloro-2-fluorophenyl)-2,3-dihydrobenzo[b][1,4]dioxin-5-yl)piperidin-1-yl)methyl)-3-((S)-oxetan-2-ylmethyl)-3H-imidazo[4,5-b]pyridine-5-carboxylic acid]	0.2 to 20 nM
O=C(O)c1ccc2nc(CN3CCC(c4cccc5c4OC(c4ccc(Cl)cc4F)CO5)CC3)n(C[C@@H]3CCO3)c2n1 (single isomer, unassigned) [Compound 130c]	0.2 to 20 nM
O=C(O)c1ccc2nc(Cc3ccc(-c4cccc5c4OCC(c4ccc(Cl)cc4F)O5)cc3)n(C[C@@H]3CCO3)c2n1 (stereo in doubt) [Compound 107a, 2-[[4-[2-(4-chloro-2-fluoro-phenyl)-2,3-dihydro-1,4-benzodioxin-5-yl]phenyl]methyl]-3-(oxetan-2-ylmethyl)imidazo[4,5-b]pyridine-5-carboxylic acid]	20 to 200 nM
O=C(O)c1ccc2nc(CN3CCC(c4cccc5c4OCC(c4ccccc4)O5)CC3)n(C[C@@H]3CCO3)c2n1 (stereo partly drawn) [Compound 101a, 3-((S)-oxetan-2-ylmethyl)-2-((4-(2-phenyl-2,3-dihydrobenzo[b][1,4]dioxin-5-yl)piperidin-1-yl)methyl)-3H-imidazo[4,5-b]pyridine-5-carboxylic acid]	0.2 to 20 nM
O=C(O)c1ccc2nc(CN3CCC(c4cccc5c4OCC(c4ccccc4)C5)CC3)n(C[C@@H]3CCO3)c2n1 (stereo partly drawn) [Compound 103a, 3-(((S)-oxetan-2-yl)methyl)-2-((4-(3-phenylchroman-8-yl)piperidin-1-yl)methyl)-3Himidazo[4,5-b]pyridine-5-carboxylic acid]	0.2 to 20 nM
O=C(O)c1ccc2nc(CN3CCC(c4cccc5c4OC[C@@H](c4ccc(Cl)cc4F)O5)CC3)n(C[C@@H]3CCO3)c2n1 [Compound 104b, 2-((4-((R)-2-(4-chloro-2-fluorophenyl)-2,3-dihydrobenzo[b][1,4]dioxin-5-yl)piperidin-1-yl)methyl)-3-(((S)-oxetan-2-yl)methyl)-3H-imidazo[4,5-b]pyridine-5-carboxylic acid]	0.2 to 20 nM
O=C(O)c1ccc2nc(CN3CCC(c4cccc5c4OC[C@H](c4ccc(Cl)cc4F)O5)CC3)n(C[C@@H]3CCO3)c2n1 [Compound 104c, 2-((4-((S)-2-(4-chloro-2-fluorophenyl)-2,3-dihydrobenzo[b][1,4]dioxin-5-yl)piperidin-1-yl)methyl)-3-(((S)-oxetan-2-yl)methyl)-3H-imidazo[4,5-b]pyridine-5-carboxylic acid]	20 to 200 nM
O=C(O)c1ccc2nc(CN3CCC(c4cccc5c4OCC(c4ccc(Cl)cc4F)C5)CC3)n(C[C@@H]3CCO3)c2n1 (stereo partly drawn) [Compound 106a, 2-((4-(3-(4-chloro-2-fluorophenyl)chroman-8-yl)piperidin-1-yl)methyl)-3-(((S)-oxetan-2-yl)methyl)-3H-imidazo[4,5-b]pyridine-5-carboxylic acid]	0.2 to 20 nM
O=C(O)c1ccc2nc(CN3CCN(c4cccc5c4OCC(c4ccc(Cl)cc4F)O5)CC3)n(C[C@@H]3CCO3)c2n1 (stereo partly drawn) [Compound 108a, 2-((4-(2-(4-chloro-2-fluorophenyl)-2,3-dihydrobenzo[b][1,4]dioxin-5-yl)piperazin-1-yl)methyl)-3-((S)-oxetan-2-ylmethyl)-3H-imidazo[4,5-b]pyridine-5-carboxylic acid]	0.2 to 20 nM
O=C(O)c1ccc2nc(CN3CCC(c4cccc5c4OCC(c4ccccc4F)O5)CC3)n(C[C@@H]3CCO3)c2n1 (stereo partly drawn) [Compound 109a, 2-((4-(2-(2-fluorophenyl)-2,3-dihydrobenzo[b][1,4]dioxin-5-yl)piperidin-1-yl)methyl)-3-(((S)-oxetan-2-yl)methyl)-3H-imidazo[4,5-b]pyridine-5-carboxylic acid]	20 to 200 nM
O=C(O)c1ccc2nc(CN3CCC(c4cccc5c4OC[C@H](c4ccc(Cl)cc4)O5)CC3)n(C[C@@H]3CCO3)c2n1 [Compound 111c, 2-((4-((S)-2-(4-chlorophenyl)-2,3-dihydrobenzo[b][1,4]dioxin-5-yl)piperidin-1-yl)methyl)-3-(((S)-oxetan-2-yl)methyl)-3H-imidazo[4,5-b]pyridine-5-carboxylic acid]	20 to 200 nM
O=C(O)c1ccc2nc(CN3CCC(c4cccc5c4OCC(c4cccc(Cl)c4)O5)CC3)n(C[C@@H]3CCO3)c2n1 (stereo partly drawn) [Compound 112a, 2-((4-(2-(3-chlorophenyl)-2,3-dihydrobenzo[b][1,4]dioxin-5-yl)piperidin-1-yl)methyl)-3-(((S)-oxetan-2-yl)methyl)-3H-imidazo[4,5-b]pyridine-5-carboxylic acid]	0.2 to 20 nM
O=C(O)c1ccc2nc(CN3CCC(c4cccc5c4OCC(c4ccc(Cl)c(F)c4)O5)CC3)n(C[C@@H]3CCO3)c2n1 (stereo partly drawn) [Compound 113a, 2-((4-(2-(4-chloro-3-fluorophenyl)-2,3-dihydrobenzo[b][1,4]dioxin-5-yl)piperidin-1-yl)methyl)-3-(((S)-oxetan-2-yl)methyl)-3H-imidazo[4,5-b]pyridine-5-carboxylic acid]	0.2 to 20 nM
C[C@H]1CN(c2cccc3c2OCC(c2ccc(Cl)cc2)O3)CCN1Cc1nc2ccc(C(=O)O)nc2n1C[C@@H]1CCO1 (stereo partly drawn) [Compound 114a, 2-(((2S)-4-(2-(4-chlorophenyl)-2,3-dihydrobenzo[b][1,4]dioxin-5-yl)-2-methylpiperazin-1-yl)methyl)-3-(((S)-oxetan-2-yl)methyl)-3H-imidazo[4,5-b]pyridine-5-carboxylic acid]	0.2 to 20 nM
O=C(O)c1ccc2nc(CN3CCC(c4cccc5c4OCC(c4ccc(Cl)cc4)O5)CC3)n(C[C@@H]3CCO3)c2c1 (stereo partly drawn) [Compound 115a, 2-((4-(2-(4-chlorophenyl)-2,3-dihydrobenzo[b][1,4]dioxin-5-yl)piperidin-1-yl)methyl)-1-(((S)-oxetan-2-yl)methyl)-1H-benzo[d]imidazole-6-carboxylic acid]	≤ 0.2 nM
N#Cc1ccc(C2COc3c(cccc3C3CCN(Cc4nc5ccc(C(=O)O)nc5n4C[C@@H]4CCO4)CC3)O2)cc1 (stereo partly drawn) [Compound 118a, 2-((4-(2-(4-cyanophenyl)-2,3-dihydrobenzo[b][1,4]dioxin-5-yl)piperidin-1-yl)methyl)-3-(((S)-oxetan-2-yl)methyl)-3H-imidazo[4,5-b]pyridine-5-carboxylic acid]	≤ 0.2 nM

The remaining lines, values ahead:

EC50	Compound
≤ 0.2 nM	O=C(O)c1ccc2nc(CN3CCC(c4cccc5c4OC(c4ccc(Cl)cc4F)CO5)CC3)n(C[C@@H]3CCO3)c2n1 (single isomer, unassigned) [Compound 130b]
> 200 nM	O=C(O)c1ccc2nc(CN3CCC(c4cccc5c4CCC(c4ccc(Cl)cc4F)O5)CC3)n(C[C@@H]3CCO3)c2n1 (stereo partly drawn) [Compound 105a, 2-((4-(2-(4-chloro-2-fluorophenyl)chroman-5-yl)piperidin-1-yl)methyl)-3-(((S)oxetan-2-yl)methyl)-3H-imidazo[4,5-b]pyridine-5-carboxylic acid]
≤ 0.2 nM	O=C(O)c1ccc2nc(CN3CCC(c4cccc5c4OCC(c4ccc(Cl)cc4)O5)CC3)n(C[C@@H]3CCO3)c2n1 (stereo partly drawn) [Compound 111a, 2-((4-(2-(4-chlorophenyl)-2,3-dihydrobenzo[b][1,4]dioxin-5-yl)piperidin-1-yl)methyl)-3-(((S)-oxetan-2-yl)methyl)-3H-imidazo[4,5-b]pyridine-5-carboxylic acid]
≤ 0.2 nM	O=C(O)c1ccc2nc(CN3CCC(c4cccc5c4OC[C@@H](c4ccc(Cl)cc4)O5)CC3)n(C[C@@H]3CCO3)c2n1 [Compound 111b, 2-((4-((R)-2-(4-chlorophenyl)-2,3-dihydrobenzo[b][1,4]dioxin-5-yl)piperidin-1-yl)methyl)-3-((S)-oxetan-2-ylmethyl)-3H-imidazo[4,5-b]pyridine-5-carboxylic acid]
≤ 0.2 nM	Cc1ccc(C2COc3c(cccc3C3CCN(Cc4nc5ccc(C(=O)O)nc5n4C[C@@H]4CCO4)CC3)O2)cc1 (stereo partly drawn) [Compound 116a, 3-(((S)-oxetan-2-yl)methyl)-2-((4-(2-(p-tolyl)-2,3-dihydrobenzo[b][1,4]dioxin-5-yl)piperidin-1-yl)methyl)-3H-imidazo[4,5-b]pyridine-5-carboxylic acid]
0.2 to 20 nM	O=C(O)c1ccc2nc(CN3CCC(c4cccc5c4OCC(c4ccc(F)cc4)O5)CC3)n(C[C@@H]3CCO3)c2n1 (stereo partly drawn) [Compound 117a, 2-((4-(2-(4-fluorophenyl)-2,3-dihydrobenzo[b][1,4]dioxin-5-yl)piperidin-1-yl)methyl)-3-(((S)-oxetan-2-yl)methyl)-3H-imidazo[4,5-b]pyridine-5-carboxylic acid]
≤ 0.2 nM	N#Cc1ccc([C@@H]2COc3c(cccc3C3CCN(Cc4nc5ccc(C(=O)O)nc5n4C[C@@H]4CCO4)CC3)O2)cc1 [Compound 118b, 2-((4-((R)-2-(4-cyanophenyl)-2,3-dihydrobenzo[b][1,4]dioxin-5-yl)piperidin-1-yl)methyl)-3-(((S)-oxetan-2-yl)methyl)-3H-imidazo[4,5-b]pyridine-5-carboxylic acid]
20 to 200 nM	N#Cc1ccc([C@H]2COc3c(cccc3C3CCN(Cc4nc5ccc(C(=O)O)nc5n4C[C@@H]4CCO4)CC3)O2)cc1 [Compound 118c, 2-((4-((S)-2-(4-cyanophenyl)-2,3-dihydrobenzo[b][1,4]dioxin-5-yl)piperidin-1-yl)methyl)-3-(((S)-oxetan-2-yl)methyl)-3H-imidazo[4,5-b]pyridine-5-carboxylic acid]
